Read-outs that look alike come from different tables or passages of the source.
Legend:
HSV-2 G strain = assay: HSV-2 Antiviral Assay (Vero cells, cell viability); format: cell-based; details: for EC50: Human alphaherpesvirus 2, Vero, 120 h, Vero cells, 5 days
Procedure, shortened: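 Antiviral readout is survival of infected Vero cells: after 5 days at 37 °C with 160 TCID50 HSV-2 G strain plus serially diluted compound (8 points, 3-fold, 0.5% DMSO), WST-8 was added for 3 h and absorbance measured at 460/620 nm. Cells seeded at 1.0×10^4 per well.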

HSV-1 = HSV-1 Antiviral Assay (Vero cells, cell viability); format: cell-based; details: for EC50: read-out: HSV-1 EC50
Protocol: Vero cells were cultured in Dulbecco's Modified Eagle Medium (DMVEM) supplemented with […] and 100 units/mL penicillin and streptomycin. The cells were passaged 2-3 times per week to maintain sub-confluent densities.
Vero cells were seeded into 96-well plates at a density of 2.5×10^3 cells per well and allowed to attach overnight. Following attachment, the media was replaced with 50 μL of infection medium (DMVEM supplemented with 2% fetal bovine serum and 100 units/mL penicillin and streptomycin). A Tecan D300e digital dispenser was then used to add compounds to the culture using an 8-point 3-fold serial dilution format. The DMSO concentration was normalized to 0.5% for all treatments. Following compound addition, 50 μL of infection medium containing 80 TCID50 HSV-1 was added to the cells and incubated at 37° C. for 4 days. After the incubation, the plates were equilibrated to room temperature, the media was removed, and […] a 1:1 dilution of Cell titer glow and phosphate buffered saline was added to the cells. Following a 5-minute incubation, cell viability was quantified by measuring luminance using a Tecan Infinite M1000 Pro plate reader.

[1] = 160 TCID50 HSV-2 G strain, cell viability
[2] = Human alphaherpesvirus 1, 96 h, Vero cells, 80 TCID50 HSV-1, 4 days, cell viability
[3] = ratio of EC50 vs Example 87 in WO2001047904

SMILES	EC50 (HSV-2 G strain; [1]) [nM]	EC50 (HSV-1; [2]) [nM]	other results
Cc1nc(N2CCCN(c3ccc(-c4cc(F)ccc4C(F)F)cc3)C2=O)sc1S(N)(=O)=O [Compound 194]	< 100	< 100	
Cc1nc(N2CCCN(c3ccc(-c4ncccc4F)cc3)C2=O)sc1S(N)(=O)=O [Compound 35]	< 100	< 100	
CNS(=O)(=O)c1sc(N2CCCN(Cc3cccc(-c4cc(F)ccc4F)c3)C2=O)nc1C [Compound 181]	100 to 1000	< 100	
Cc1nc(N2CCCN(c3ccc(-c4cc(F)ccc4F)cc3)C2=O)sc1S(=O)(=O)NC1CC1 [Compound 117]	< 100	< 100	
Cc1nc(N2CCCN(c3ccc(-c4cccc(C(F)F)c4)cc3)C2=O)sc1S(N)(=O)=O [Compound 14]	< 100	< 100	
Cc1nc(N2CCCCN(c3ccc(-c4cc(F)ccc4F)cc3)C2=O)sc1S(N)(=O)=O [Compound 101, 2-(3-(2′,5′-Difluoro-[1,1′-biphenyl]-4-yl)-2-oxo-1,3-diazepan-1-yl)-4-methylthiazole-5-sulfonamide]	< 100	< 100	
Cc1nc(N(C)C(=O)N(C)c2ccc(-c3cc(F)ccc3F)cc2)sc1S(N)(=O)=O [Reference Compound A, reference compound]			EC50 (HSV-2 G strain): 925 nM; fold less active than Example 5 in the HSV-2 assay (HSV-2 G strain; ratio of EC50 vs Example 5): 92 fold; fold less active than acyclic amide analog Example 87 in the HSV-2 assay (HSV-2 G strain; [3]): 54 fold; EC50 (HSV-1; Human alphaherpesvirus 1, 96 h, Vero cells, 4 days): 844 nM; fold less active than Example 5 in the HSV-1 assay (HSV-1; ratio of EC50 vs Example 5): 44 fold; fold less active than acyclic amide analog Example 87 in the HSV-1 assay (HSV-1; [3]): 50 fold
Cc1nc(N2CC3(CC3)CN(c3ccc(-c4ccnn4C)cc3)C2=O)sc1S(N)(=O)=O [Compound 113, 4-Methyl-2-(7-(4-(1-methyl-1H-pyrazol-5-yl)phenyl)-6-oxo-5,7-diazaspiro[2.5]octan-5-yl)thiazole-5-sulfonamide]	1000 to 5000	1000 to 5000	
CNc1cccc(-c2ccc(N3CCCN(c4nc(C)c(S(=O)(=O)NC)s4)C3=O)cc2)n1 [Compound 124]	< 100	< 100	
Cc1nc(N2CCCN(c3ccc(-c4cccc5c4cnn5C)cc3)C2=O)sc1S(N)(=O)=O [Compound 55]	< 100	< 100	
O=C1N(c2ccc(-c3cc(F)ccc3F)cc2)CCCN1c1ncc(S(=O)(=O)C2CC2)s1 [Compound 166]	100 to 1000	100 to 1000	
Cc1nc(N2CCCN(c3ccc(-c4ccccn4)c(F)c3)C2=O)sc1S(N)(=O)=O [Compound 97]	< 100	< 100	
Cc1nc(N2CCCN(c3ccc(-c4cc(F)ccc4C4CC4)cc3)C2=O)sc1S(N)(=O)=O [Compound 22]	< 100	< 100	
Cc1nc(N2CCCN(c3ccc(-c4cccc5c4cnn5CC(C)(C)O)cc3)C2=O)sc1S(N)(=O)=O [Compound 60]	1000 to 5000	1000 to 5000	
Cc1nc(N2CCCN(Cc3cccc(-c4cc(F)ccc4F)c3)C2=O)sc1S(=O)(=O)NC1CC1 [Compound 180]		100 to 1000	
Cc1nc(N2CCCN(c3ccc(-c4cc(F)ccc4F)cc3)C2=O)sc1S(=O)(=O)N1CCOCC1 [Compound 136]		100 to 1000	
Cc1nc(N2CCCN(c3cnn(-c4ccccc4F)c3)C2=O)sc1S(N)(=O)=O [Compound 100]		1000 to 5000	
CC[S@](=N)(=O)c1sc(N2CCCN(c3ccc(-c4cc(F)ccc4F)cc3)C2=O)nc1C (single isomer, unassigned) [Compound 150]		< 100	
Cc1nc(N2CCCN(c3ccc(-c4cccc5ccncc45)cc3)C2=O)sc1S(N)(=O)=O [Compound 83]		< 100	
Cc1nc(N2CCCN(c3ccc(-c4cc(F)ccc4F)cc3)C2=O)sc1S(=O)(=O)F [Compound 165]			EC50 (HSV-1; Human alphaherpesvirus 1, Vero, 96 h): 1000 to 5000 nM
Cc1nc(N2CCCN(c3ccc(-c4cccc5c4CC(=O)N5)cc3)C2=O)sc1S(N)(=O)=O [Compound 76]		1000 to 5000	
Cc1nc(N2CCCN(c3ccc(-c4cc(F)ccc4F)cc3)C2=O)sc1S(=O)(=O)C(C)C [Compound 162, 1-(2′,5′-Difluoro-[1,1′-biphenyl]-4-yl)-3-(5-(isopropylsulfonyl)-4-methylthiazol-2-yl) tetrahydropyrimidin-2(1H)-one]		100 to 1000	
NS(=O)(=O)c1sc(N2CCCN(c3ccc(-c4cc(F)ccc4F)cc3)C2=O)nc1C(F)(F)F [Compound 169, 2-(3-(2′,5′-Difluoro-[1,1′-biphenyl]-4-yl)-2-oxotetrahydropyrimidin-1(2H)-yl)-4-(trifluoromethyl) thiazole-5-sulfonamide]		< 100	
Cc1nc(N2CCCN(c3ccc(-c4cc(F)ccc4F)cc3)C2=O)sc1S(C)(=N)=O (stereo not shown) [Compound 139, 1-(2′,5′-Difluoro-[1,1′-biphenyl]-4-yl)-3-(4-methyl-5-(S-methylsulfonimidoyl)thiazol-2-yl) tetrahydropyrimidin-2(1H)-one]		100 to 1000	
CCS(=N)(=O)c1sc(N2CCCN(c3ccc(-c4cc(F)ccc4F)cc3)C2=O)nc1C (stereo not shown) [Compound 148]		< 100	
Cc1nc(N2CCCN(c3ccc(-c4cccc5c4ccn5C)cc3)C2=O)sc1S(N)(=O)=O [Compound 66]		< 100	
Cc1nc(N2CCCN(c3ccc(-c4cccc5cnn(C)c45)cc3)C2=O)sc1S(N)(=O)=O [Compound 63]		< 100	
Cc1nc(N2CCCN(c3ccc(-c4cc(F)ccc4F)cc3)C2=O)sc1S(=O)(=O)Nc1ccccc1 [Compound 134]		100 to 1000	
Cc1nc(N2CC(C)(C)CN(c3ccc(-c4cc(F)ccc4F)cc3)C2=O)sc1S(N)(=O)=O [Compound 106]		< 100	

Continued, in another order:

EC50 (HSV-2 G strain; [1]) [nM]	EC50 (HSV-1; [2]) [nM]	SMILES	other results
100 to 1000	100 to 1000	Cc1nc(N2CCCN(c3ccc(-c4ccncc4)cc3)C2=O)sc1S(N)(=O)=O [Compound 3]	
< 100	< 100	Cc1nc(N2CCCN(c3ccc(-c4cccc5c4OC(F)(F)O5)cc3)C2=O)sc1S(N)(=O)=O [Compound 80]	
< 100	< 100	Cc1nc(N2CC3(CC3)CN(c3ccc(-c4cc(F)ccc4F)cc3)C2=O)sc1S(C)(=N)=O (stereo not shown) [Compound 155]	
< 100	100 to 1000	CNS(=O)(=O)c1sc(N2CCCN(c3ccc(-c4ccccc4F)c(F)c3)C2=O)nc1C [Compound 132]	
1000 to 5000	1000 to 5000	Cc1nc(N2CCCN(c3ccc(-c4ccc5c(cnn5C)c4)cc3)C2=O)sc1S(N)(=O)=O [Compound 52]	
< 100	100 to 1000	Cc1nc(N2CC3(CC3)CN(c3ccc(-c4cc(F)ccc4F)cc3)C2=O)sc1[S@@](C)(=N)=O (single isomer, unassigned) [Compound 157]	
< 100	< 100	Cc1nc(N2CCCCN(c3ccc(-c4ccccn4)cc3)C2=O)sc1S(N)(=O)=O [Compound 103]	
< 100	100 to 1000	Cc1nc(N2CCCN(c3ccc(-c4cccc5ncccc45)cc3)C2=O)sc1S(N)(=O)=O [Compound 84]	
< 100	< 100	NS(=O)(=O)c1sc(N2CCCN(c3ccc(-c4cc(F)ccc4F)cc3)C2=O)nc1CF [Compound 441, 2-(3-(2′,5′-difluoro-[1,1′-biphenyl]-4-yl)-2-oxotetrahydropyrimidin-1(2H)-yl)-4-(fluoromethyl)thiazole-5-sulfonamide]	
< 100	< 100	Cc1nc(N2CCCN(c3ccc(-c4ccccc4Cl)cc3)C2=O)sc1S(N)(=O)=O [Compound 9]	
< 100	< 100	Cc1nc(N2CC(C)(C)CN(c3ccc(-c4ccccc4F)cc3)C2=O)sc1S(N)(=O)=O [Compound 105]	
	1000 to 5000	Cc1nc(N2CCCN(c3ccc(-c4nnco4)cc3)C2=O)sc1S(N)(=O)=O [Compound 51, 2-(3-(4-(1,3,4-oxadiazol-2-yl)phenyl)-2-oxotetrahydropyrimidin-1(2H)-yl)-4-methylthiazole-5-sulfonamide]	
	< 100	NS(=O)(=O)c1sc(N2CCCN(c3ccc(-c4ccccc4F)cc3)C2=O)nc1C(F)(F)F [Compound 170]	
	100 to 1000	Cc1nc(N2CC3(CC3)CN(c3ccc(-c4ccccc4F)cc3)C2=O)sc1[S@@](C)(=N)=O (single isomer, unassigned) [Compound 160]	
	100 to 1000	Cc1nc(N2CCCN(c3ccc(-c4ccccc4F)cc3)C2=O)sc1[S+](C)[O-] (stereo not shown) [Compound 168]	
	1000 to 5000	Cc1nc(N2CCCN(C(C)c3cccc(-c4ccccc4F)c3)C2=O)sc1S(N)(=O)=O (stereo not shown) [Compound 177]	
	1000 to 5000	Cc1cnc(-c2ccc(N3CCCN(c4nc(C)c(S(N)(=O)=O)s4)C3=O)cc2)s1 [Compound 44]	
	1000 to 5000	Cc1nc(N2CCCN(c3ccc(-c4cccc5ncn(C)c45)cc3)C2=O)sc1S(N)(=O)=O [Compound 62]	
	1000 to 5000	Cc1nc(N2CCCN([C@@H](C)c3cccc(-c4ccccc4F)c3)C2=O)sc1S(N)(=O)=O (single isomer, unassigned) [Compound 179]	
	100 to 1000	Cc1nc(N2CCCN(c3ccc(-c4cccc(NC(=O)OC(C)(C)C)n4)cc3)C2=O)sc1S(N)(=O)=O [Compound 34]	
	< 100	Cc1nc(N2CCCN(c3ccc(-n4ncc5ccccc54)cc3)C2=O)sc1S(N)(=O)=O [Compound 93]	
